{"source": "patent US20150005236A1", "about": "“USE OF BETA-NERVE GROWTH FACTOR FOR INDUCING OVULATION IN MAMMALS” (INSTITUT NATIONAL DE LA RECHERCHE AGRONOMIQUE, priority 2012, published 2015)", "key": {"[1]": {"tested_on": "mouse GnRH neurons", "assay": "Calcium imaging of primary culture of GnRH neurons", "format": "cell-based", "text": "A model of primary culture of GnRH neurons has been developed from explants of olfactory placodes of mouse embryos (Constantin et al., 2009). This model has three stages of in vitro development: from 1 to 3 days, intra-explant migration, corresponding to an in vivo intranasal migration; from 3 to […] days, out-of explant migration, corresponding to an in vivo intracerebral development; from 7 to 15 days, occurrence of the pulsatile secretion, corresponding to neuronal and network maturation.\nThis experiment was carried out between 7 and 15 days of in vitro development corresponding to a stage of mature GnRH neurons having a pulsatile GnRH secretion.\nEmbryos were obtained from timed pregnant animals. Nasal pits of embryonic d 11.5 staged Swiss mice were isolated under aseptic conditions and refrigerated for 1 h in Gey's balanced salt solution (Eurobio, Les Ulis, France) enriched with glucose (Sigma-Aldrich Corp., St. Louis, Mo.). Nasal explants were adhered onto coverslips by a chicken plasma (local source)/thrombin (Sigma-Aldrich) clot. […]\nThese variations were measured by “time lapse” imaging in the primary culture of GnRH neurons. A quantitative analysis was carried out for single neurons but also overall for a group of neurons constituting part of the network. […]\nCalcium Green-1 was visualized using an inverted microscope (DM-IRB; Leica. Microsystems GmbH, Wetzlar, Germany), through a ×20 fluorescence objective, and acquired using a cooled intensified charge-coupled device camera (CoolSNAP fx; Rapper Instruments, Photometrics, Tucson, Ariz.). Experiments were piloted by Metafluor (Molecular Devices, Downingtown, Pa.), controlling the shutter and the acquisition (every 20 sec for 3 h), Excitation wavelengths were provided through a medium-width excitation bandpass filter at 465-495 nm, and emission was monitored through a 40-nm bandpass centered on 535 nm. Fluctuations in [Ca2+]i were analyzed a posteriori with Metafluor software. […] Calcium Green-1 fluorescence intensity was plotted and analyzed with Excel (Microsoft Corp., Redmond, Wash.). […]"}, "[2]": {"tested_on": "female rabbits", "assay": "Induction of ovulation in female rabbits", "format": "in vivo, rabbit", "conditions": "for Ovulation (%): ovulation frequency, i.m. injection", "experimental": "A herd of 83 female rabbits of proven fertility was used in this experiment.\nThe female rabbits were synchronized by an injection of eGG 48 hours before insemination. Then they were inseminated with a mixture of semen from several males. The same mixture was used for all females.\nThe female rabbits were killed 48 hours after insemination. The ovaries were collected to proceed to counting the corpora lutea, pre-ovulatory follicles of diameter higher than 1 mm and atretic follicles, and to identify potential pseudopregnant females. The oviducts were infused in order to count oocytes and embryos and to evaluate the developmental stage of the latter (number of blastomeres of the embryo).\nThe results were analysed with the software SAS using a fixed-effects variance analysis, taking into account the fixed effect of the treatment (4 levels: GnRH, β-NGF, PS and saline)."}, "[3]": {"tested_on": "female alpacas", "assay": "LH concentration in peripheral blood of female alpacas (RIA)", "format": "in vivo, alpaca", "conditions": "for LH concentration in peripheral blood: 12 hours after i.m. injection, versus saline; for peak of LH, time after injection: i.m. injection, peripheral blood", "experimental": "(§1) Female alpacas were cannulated and jugular venous blood samples (5 ml) were collected for detection of luteinising hormone immediately before treatment, every 30 min for 4 h, then every 1 h for 4 h and finally at 12 h post-treatment. Jugular venous blood samples (5 ml) were also collected on day 8 at the time of ultrasonography for detection of plasma progesterone. Samples were placed in heparinised tubes, centrifuged at 2000×g for 10 min, the plasma decanted and stored at −20° C. until analysis.\n(§2) Plasma LH concentration were determined using a RIA. Plasma progesterone concentrations were determined using a commercial double antibody RIA kit (Coat-a-Count).\nThe evolution of the concentration of LH in peripheral blood was assessed for 12 hours after the injections."}, "[4]": {"tested_on": "female alpacas", "assay": "Induction of ovulation in alpacas (transrectal ultrasonography, plasma progesterone RIA)", "format": "in vivo, alpaca", "conditions": "for CL diameter: corpus luteum on day 8 following i.m. treatment; for CL diameter / Progesterone conc.: mean ± sem; for corpus lutea detected, % of alpacas: day 8 following treatment; for corpus lutea detected, % of alpacas / dominant follicle absent, % of female alpacas: n=5/group; for Progesterone conc.: plasma, day 8 following i.m. treatment, animals that did not ovulate excluded; for dominant follicle absent, % of female alpacas: ultrasonography 28-30 h following treatment", "experimental": "The emergence of dominant follicles was synchronised with the 0.8 ml (200 μg) prostaglandin F2α (Estrumate®, Intervet) i.m. followed by 1 ml (4 μg) of Buserelin (Receptal®, Intervet) i.m. 24 h later, then luteolysis was induced 11 days after induced ovulation with 0.8 ml Estrumate®.\nTo determine the presence of a dominant follicle, females were restrained in sternal recumbency and examined by transrectal ultrasonography using an Aloka SSD-500 scanner with 7.5 MHz linear array transducer (Aloka Co., Japan). The ovaries of […] were scanned. Females with a newly emerged dominant follicle of 6-10 mm in diameter were randomly assigned to receive 1 of 4 treatments: (1) 1 ml 0.9% saline in, (n 5), (2) 1 ml (4 μg) Receptal® (Intervet) i.m (n=5), (3) 2 ml alpaca's seminal plasma i.m. collected as described above for Experiment ˜1 (n=5), (4) 1 mg recombinant active human β-NGF protein (Sino Biological, Japan) Lm. (n=5).\nAnimals were examined by transrectal ultrasonography 28-30 h following treatments to detect ovulation. Ovulation was defined as the absence of the dominant follicle that was observed during the previous scan at the time of treatment. Ultrasonography was also repeated 8 days following treatment, to confirm ovulation and determine the size of the corpus luteum.\nas §1, §2\nInternational, Hemel Hempstead, UK) with post-hoc comparisons using the least significant difference (LSD) test where appropriate. Far all analyses P<0.05 was considered significant.\nIn this experiment, female alpacas (n 5/group) were administered i.m. with (1) 1 ml 0.9% saline, (2) 1 ml of the GnRH agonist Receptal® (3) 2 ml alpaca seminal plasma, or (4) 1 mg human β-NGF. Ovulation was detected by transrectal ultrasonography […] following treatment and confirmed by plasma progesterone concentrations."}, "[5]": {"tested_on": "glial cells associated with GnRH neurons", "assay": "Immunohistochemistry of the relations between GnRH neurons and glial cells", "format": "cell-based, mouse", "conditions": "20 min application at 75 nM, then K+ stimulation; not in control conditions", "experimental": "An immunohistochemical approach was used to characterize the cells present in the culture, using anti-GnRH antibody for the GnRH neurons, anti-S100b antibody for the glial cells and anti-P75 antibody (P75 is a NGF-specific receptor). The analysis was carried out by confocale microscopy.\nNasal explants were fixed in 4% formaldehyde [45-60 min, rinsed in PBS (3×10 min)], blocked (1 h, 10% normal goat serum, 0.3% Triton X-100, and 0.1% sodium azide), rinsed in PBS (3×8 min), and incubated overnight in anti-GnRH-1 (1:3000, SW-1). Antibodies were diluted in PBS containing 10% normal goat serum, 0.3% Triton X-100, and 0.1% sodium azide. The next day, the explants were rinsed in PBS (3×8 min), incubated in secondary antibody ant rabbit Alexa 546 (1:500, 1 h; Molecular Probes, Inc., Eugene Oreg.) and rinsed in PBS (4×8 min). Explants incubated with fluorescent dies were mounted with Vector Shield (Vector Laboratories).\nThe relations between GnRH neurons and glial cells have been analyzed by immunohistochemistry after 20 min of recording in calcic imaging, for the control and after 20 min of application of β-NGF at 75 nM in the culture medium, and after K^+ stimulation. The glial cells retract after K^+ stimulation in the presence of β-NGF, but not in control conditions."}, "[6]": {"conditions": "48 hours after insemination, estimated mean values"}}, "note": "“And” between values parts separate entries of the source, which are not always exact repeats. Identical values can stand only once. Marks after values point to notes of the source that are not given here.", "data": [{"molecule": "beta-Nerve Growth Factor [β-NGF]", "values": [{"measurement": "percent of synchronization events involving more than 70% of the recorded GnRH neurons", "setting": "[1]; 75 nM in the culture medium", "result": "increase"}, {"measurement": "synchronization of calcic events between GnRH neurons", "setting": "[1]; 20 min after application at 75 nM", "result": "increased"}, {"measurement": "fold decrease in average time between two calcium events", "setting": "[1]; 20 min after application at 75 nM in the culture medium, versus control (about 15 s)", "result": 3}, {"measurement": "Ovulation (%)", "setting": "[2]", "result": "25% and 25.0^b %"}, {"measurement": "time to LH surge after treatment", "setting": "[3]; 1 mg i.m.", "result": "≤ 8", "unit": "h"}, {"measurement": "LH concentration in peripheral blood", "setting": "[3]", "result": "significant increase"}, {"measurement": "peak of LH, time after injection", "setting": "[3]", "result": 3, "unit": "h"}, {"measurement": "CL diameter", "setting": "[4]", "result": "10.3 ± 1.03^a mm"}, {"measurement": "corpus lutea detected, % of alpacas", "setting": "[4]", "result": 80, "unit": "%"}, {"measurement": "Progesterone conc.", "setting": "[4]", "result": "3.28 ± 0.681^b ng/ml"}, {"measurement": "dominant follicle absent, % of female alpacas", "setting": "[4]", "result": 80, "unit": "%"}, {"measurement": "glial cells after K+ stimulation", "setting": "[5]", "result": "retract"}]}, {"molecule": "GnRH: 0.2 ml of Fertagyl® containing 20 μg of GnRH (Gonadotrophine Releasing Hormone), positive control (QHWSYGLRPG; Gonadoliberin-1; UniProt P01148 24-33, looked up)", "values": [{"measurement": "Collected embryos", "setting": "[2]; [6]", "result": "12.09^a"}, {"measurement": "Corpora lutea (number by injected female rabbit)", "setting": "[2]; [6]", "result": "13.82^a"}, {"measurement": "Haemorrhagic follicles", "setting": "[2]; [6]", "result": "1.36^a"}, {"measurement": "Ovulation (%)", "setting": "[2]", "result": "100% and 100^a %"}]}, {"molecule": "CCNC(=O)[C@@H]1CCCN1C(=O)[C@H](CCCNC(=N)N)NC(=O)[C@H](CC(C)C)NC(=O)[C@@H](COC(C)(C)C)NC(=O)[C@H](Cc1ccc(O)cc1)NC(=O)[C@H](CO)NC(=O)[C@H](Cc1c[nH]c2ccccc12)NC(=O)[C@H](Cc1cnc[nH]1)NC(=O)[C@@H]1CCC(=O)N1", "note": "[Receptal, Buserelin, reference compound]", "values": [{"measurement": "LH concentration in peripheral blood", "setting": "[3]", "result": "significant increase"}, {"measurement": "peak of LH, time after injection", "setting": "[3]", "result": 3, "unit": "h"}, {"measurement": "CL diameter", "setting": "[4]", "result": "9.3 ± 1.49^a mm"}, {"measurement": "corpus lutea detected, % of alpacas", "setting": "[4]", "result": 80, "unit": "%"}, {"measurement": "Progesterone conc.", "setting": "[4]", "result": "4.01 ± 0.897^b ng/ml"}, {"measurement": "dominant follicle absent, % of female alpacas", "setting": "[4]", "result": 80, "unit": "%"}]}]}
